Earlier results, collected in patent US20210244731A1, “TABLET CONTAINING ANTITUMOR AGENT” (FUJIFILM Corporation, priority 2018, published 2021).

Target: T1, FLT3 (Homo sapiens, UniProt P36888)
T1 sequence (P36888 27-993): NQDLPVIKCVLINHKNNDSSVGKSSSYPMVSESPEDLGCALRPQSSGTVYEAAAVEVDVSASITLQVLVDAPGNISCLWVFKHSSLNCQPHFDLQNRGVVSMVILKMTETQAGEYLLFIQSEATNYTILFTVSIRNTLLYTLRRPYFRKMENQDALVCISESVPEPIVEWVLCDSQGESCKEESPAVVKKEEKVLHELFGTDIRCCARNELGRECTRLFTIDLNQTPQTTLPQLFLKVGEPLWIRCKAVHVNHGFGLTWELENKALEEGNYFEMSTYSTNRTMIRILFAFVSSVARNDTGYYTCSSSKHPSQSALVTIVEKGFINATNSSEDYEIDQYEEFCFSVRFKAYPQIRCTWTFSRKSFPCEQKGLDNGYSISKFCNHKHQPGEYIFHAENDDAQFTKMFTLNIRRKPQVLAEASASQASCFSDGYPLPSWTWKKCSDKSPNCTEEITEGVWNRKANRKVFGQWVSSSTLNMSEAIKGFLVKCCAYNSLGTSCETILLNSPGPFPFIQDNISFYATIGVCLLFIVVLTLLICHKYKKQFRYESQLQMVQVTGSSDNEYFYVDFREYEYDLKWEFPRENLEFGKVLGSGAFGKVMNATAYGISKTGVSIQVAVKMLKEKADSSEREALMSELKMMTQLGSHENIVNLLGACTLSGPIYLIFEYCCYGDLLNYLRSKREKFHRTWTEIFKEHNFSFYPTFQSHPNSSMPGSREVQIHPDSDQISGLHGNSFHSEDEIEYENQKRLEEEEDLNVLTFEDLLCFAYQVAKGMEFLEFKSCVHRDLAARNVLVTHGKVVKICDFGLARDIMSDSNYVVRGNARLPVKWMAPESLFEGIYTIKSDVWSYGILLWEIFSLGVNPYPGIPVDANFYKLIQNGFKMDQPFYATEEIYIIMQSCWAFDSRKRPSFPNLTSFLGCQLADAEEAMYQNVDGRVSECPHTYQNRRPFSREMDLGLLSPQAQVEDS
Details: statement of background, WO2015/056683A

- FLT3 inhibitory action: FLT3 inhibitory action
Structure (SMILES): CCCNc1nc(Nc2ccc(C#N)cc2)ncc1C#CCCCNC(=O)[C@H](C)N(C)C(=O)/C=C/CN(C)C [Compound A, (S,E)-N-(1-((5-(2-((4-cyanophenyl)amino)-4-(propylamino)pyrimidin-5-yl)-4-pentyn-1-yl)amino)-1-oxopropan-2-yl)-4-(dimethylamino)-N-methyl-2-butenamide]
